Test results taken from patent publication US5602110A, “Method and composition for treating cystic fibrosis” (Case Western Reserve University, priority 1995, dated 1997).

Experiments:
[1] = test system: CF nasal polyp epithelial cells homozygous for the ΔF508 mutation; experiment: 36Cl chloride efflux assay in primary CF nasal polyp epithelial cells; type: cell-based, human; conditions: for chloride efflux rate increase (chloride transport) in the CF cells: primary CF nasal polyp cells, isoproterenol 10 μM, milrinone 100 μM or IBMX 100 μM as labelled
Protocol: A test was run to confirm that the chloride efflux in primary CF cells (as opposed to CF-T43 cells used above) is mediated by the cAMP-dependent, protein kinase A pathway and not by calcium-dependent chloride channels. Efflux assays were carried out on primary CF cells, being CF nasal polyp epithelial cells homozygous for the ΔF508 mutation. Any significant contribution of calcium-activated chloride channels was ruled out by incubating the cells in BAPTA-AM, and comparing the response induced by ionomycin to that of albuterol combined with milrinone.
Transformed cell lines often have altered properties relative to the tissues from which they were derived. To determine if the responses seen in the transformed CF-T43 cells were representative of primary tissue cells, primary epithelial cells from CF nasal polyps were assayed for chloride efflux. Tissues were obtained from nasal polypectomies of CF patients and epithelial cells were isolated by digesting cells from basement membrane by collagenase followed by low speed centrifugations. After counting viable cells, cells were plated and assayed in the same way as the CF-T43 cells. A total of 5 such experiments were performed with polyp cells from different, unrelated patients.
The effects of these compounds on chloride permeability were measured as the rate of ^36 Cl efflux after stimulation divided by the basal rate, given as rstim /rbas. […] Both CF types are homozygous for the ΔF508 mutation.

[2] = test system: Calu-3 and 16HBE airway epithelial cells expressing normal CFTR; experiment: 36Cl chloride efflux assay in airway epithelial cell lines expressing normal CFTR; type: cell-based; conditions: 100 μM each drug alone; Calu-3 and 16HBE cells
Protocol: The nomenclature for cyclic nucleotide phosphodiesterases, as follows, is taken from Beavo (1990).
(§1) Two independent cell lines, Calu-3 and 16HBE, both derived from airway epithelial cells and both expressing normal CFTR (Shen et al., 1994; Haws et al., 1994; Haws et al., 1992) were assayed for increased Cl transport either by a radioisotopic flux assay or electrophysiologically. Using the method of Venglarik et al. (1990), cells were incubated in a Ringer's solution containing ^36 Cl to allow uptake of isotope into the cells, and then washed to remove external isotopic chloride. Efflux was measured by replacing the incubation solution every 30 seconds and quantitating the amount of ^36 Cl secreted into it. After 6 changes of solution (3 minutes), either drugs or placebos were added to the media. […] Efflux was then measured an additional 12 media changes (6 minutes).

[3] = test system: CF-T43 cells (ΔF508 CFTR); experiment: 36Cl chloride efflux assay in CF-T43 cells; type: cell-based; conditions: for chloride efflux: agent(s) as labelled, no other drug, FIG. 1, FIG. 2; for effect of added agent on chloride efflux stimulated by isoproterenol and milrinone: added to milrinone and isoproterenol, FIG. 2; for chloride efflux rate increase (chloride transport) in the CF cells: CF-T43, isoproterenol 10 μM, milrinone 100 μM or IBMX 100 μM as labelled
Protocol: as §1
CF-T43 is an SV40 T-antigen transformed cell line derived from a CF nasal turbinate (Jetten, et al., 1989). These cells maintain many of the original epithelial characteristics, including defective cAMP-dependant chloride transport, and have been used as a model for CF airway cells, CF-T43 cells carry and express only the ΔF508 CFTR mutation. […] With reference to FIG. 1, the control efflux contains Hepes-buffered Ringer's solution (HBR) +0.2% dimethylsulfoxide (DMSO), which is the concentration of DMSO in which the drugs were dissolved. The arrow indicates when the drugs were added. Iso means isoproterenol; Mil means milrinone.

[4] = test system: ΔF508 CFTR in Xenopus laevis oocytes; conditions: high concentrations of IBMX with relatively low concentrations of forskolin; cited from earlier work
[5] = test system: mutant CFTR in CF epithelial cells; conditions: Grubb et al. 1992; cited from earlier work
[6] = test system: cellular cAMP in CF-T43 cells; conditions: in combination with isoproterenol 10 μM
normal CFTR in 293 cells = conditions: forskolin alone; normal type-transfected 293 cells
16HBE cells = experiment: Whole-cell voltage clamp; type: cell-based
Protocol: Whole-cell voltage clamp was used to confirm that the chloride efflux was consistent with CFTR activation. 16HBE cells were exposed to varying concentrations of milrinone and the membrane potential clamped in increments of 10 mV from -150 mV to +50 mV. The resulting current was then plotted as a function of voltage. […] A linear current/voltage relationship is a characteristic of CFTR activation. If currents are carried by chloride there should be a reduction in current at any given voltage when chloride is replaced by an ion to which CFTR is impermeante, such as gluconate.

[7] = 100 μM glibenclamide, CF-T43 cells

SMILES: CNCCNS(=O)(=O)c1cccc2cnccc12 [H-8, N[-2-(methylamino)ethyl]-5-isoquinoline sulfonamide]
- effect of preincubation on the isoproterenol/milrinone chloride efflux response ([1]; CF nasal polyp cells preincubated in H-8): dramatically reduced

SMILES: CC(C)Cn1c(=O)n(C)c(=O)c2[nH]cnc21 [IBMX, 3-isobutyl-1-methylxanthine]
- increase in chloride efflux rate [2]: Only the inhibitors specific for type III phosphodiesterases produced detectable increases
- chloride efflux ([3]; CF-T43 cells): not provide an increase in efflux rate
- activation of ΔF508 CFTR [4]: could be activated
- activation of a chloride conductance [5]: unable to activate a chloride conductance

SMILES: Nc1ncnc2c1ncn2[C@@H]1O[C@@H]2CO[P@@](O)(=S)O[C@H]2[C@H]1O [Rp-cAMPS]
- effect of added agent on chloride efflux stimulated by isoproterenol and milrinone ([3]; CF-T43 cells): abolished the increase in chloride efflux

SMILES: Nc1ncnc2c1ncn2[C@@H]1O[C@@H]2COP(O)(=S)O[C@H]2[C@H]1O (stereo partly shown) [Sp-cAMPS, Sp-adenosine 3':5'-cyclic phosphorothioate]
- effect of added agent on chloride efflux stimulated by isoproterenol and milrinone ([3]; CF-T43 cells): enhanced
- chloride efflux ([3]; CF-T43 cells): no effect on chloride efflux

SMILES: Nc1cc(-c2ccncc2)c[nH]c1=O [amrinone]
- increase in chloride efflux rate [2]: greatest increase in chloride efflux rate
- increase in cellular cAMP over baseline ([6]; 15 minutes, CF-T43 cells): same as milrinone

SMILES: C=C[C@@]1(C)CC(=O)[C@]2(O)[C@@]3(C)[C@@H](O)CCC(C)(C)[C@@H]3[C@H](O)[C@H](OC(C)=O)[C@@]2(C)O1 [forskolin]
- activation of chloride efflux (normal CFTR in 293 cells): sufficient to activate

SMILES: COc1ccc(Cl)cc1C(=O)NCCc1ccc(S(=O)(=O)NC(=O)NC2CCCCC2)cc1 [glibenclamide]
- effect on efflux elicited by ionomycin [3, 7]: little effect
- inhibition of β-adrenergic agonist/milrinone-stimulated efflux [3, 7]: completely inhibited

SMILES: C[C@H](CCC(=O)O)C[C@H](C)C[C@H](C)C(=O)/C=C(\O)[C@H](C)C[C@H](C)C/C=C/[C@@H](C)[C@@H](O)[C@@H](C)[C@@H](O)C[C@@H]1CC[C@@](C)([C@H]2CC[C@@](C)([C@@H](C)O)O2)O1 [ionomycin]
- chloride efflux response relative to the isoproterenol/milrinone response ([3]; CF-T43 cells): greater than the isoproterenol/milrinone response
- chloride efflux response in the presence of BAPTA-AM ([3]; CF-T43 cells, BAPTA-AM added): eliminated
- chloride efflux response in the presence of BAPTA-AM ([1]; primary CF nasal polyp cells incubated in BAPTA-AM): eliminated

SMILES: CC(C)NCC(O)c1ccc(O)c(O)c1 (stereo not shown) [isoproterenol]
- chloride efflux rate increase (chloride transport) in the CF cells [3]: neither agent alone elicited a rate increase
- chloride efflux ([3]; CF-T43 cells): no effect on chloride efflux
- chloride efflux rate increase (chloride transport) in the CF cells [1]: neither agent alone elicited a rate increase

SMILES: Cc1[nH]c(=O)c(C#N)cc1-c1ccncc1 [milrinone]
- increase in chloride efflux rate [2]: greatest increase in chloride efflux rate
- reversal potential of current (16HBE cells; all concentrations of milrinone): 0 mV
- current when chloride was replaced by gluconate (16HBE cells; chloride replaced by gluconate): reduction of current
- dose dependence of effect on whole-cell current (16HBE cells; varying concentrations): dose-dependent
- current/voltage relationship (16HBE cells; varying concentrations of milrinone, clamp -150 mV to +50 mV): linear
- chloride efflux rate increase (chloride transport) in the CF cells [3]: neither agent alone elicited a rate increase
- chloride efflux rate increase (chloride transport) in the CF cells [1]: neither agent alone elicited a rate increase
- cAMP increase compared with isoproterenol alone [6]: not significantly above that of isoproterenol alone

SMILES: COc1ccc(C2CNC(=O)C2)cc1OC1CCCC1 (stereo not shown) [rolipram]
- increase in chloride efflux rate [2]: Only the inhibitors specific for type III phosphodiesterases produced detectable increases
